Entries after “also recorded” stand apart in the source; their conditions may differ.
Key:
[1] = system: CREB; test: PKA-mediated CREB phosphorylation assay; assay type: cell-based; conditions: NIH-3T3 cells; 15 μM HPI-1, 20 μM HPI-2
Protocol: PKA-mediated CREB phosphorylation assay. […] The cells were cultured for an additional 2 h and then lysed in hot 2×SDS-PAGE sample buffer (100 mM Tris, pH 6.8, 200 mM DTT, 0.02% bromophenol blue, 16 20 mM NaF, 2 mM sodium orthovandate, 4% SDS, and 20% glycerol). After the samples were boiled for 5 min, they were resolved on 4-12% Criterion XT gels (Bio-Rad) and transferred to PVDF membranes (Millipore). The membranes were blocked overnight in TBST buffer (Trisbuffered saline with 0.1% Tween 20) containing 5% bovine serum albumin and then probed with either anti-phosphorylated CREB (87G3, Cell Signaling Technology; 1:1,000 dilution) or CREB (48H2, Cell Signaling Technology, 1:1,000 dilution) antibodies.

[2] = system: Gli2 αPKA; test: Hh pathway activation by overexpressed Gli2 phosphosite mutants; assay type: cell-based; conditions: NIH-3T3 cells; 15 μM HPI-1, 20 μM HPI-2
Protocol: Hh pathway activation mediated by the overexpression of Gli, Gli2, Gli2αPKA, or Gli2αGSK. […] The cells were co-transfected the following day with 220 ng/well pcDNA-derived Gli1, Gli2, or Gli2 phosphosite mutant expression vectors and 80 ng/well of a 1:15 mixture of phRLTK (Promega) and 8XGIiBS-FL. After transfection, cells were grown to confluence (approximately 48 h). The cell were then incubated for an additional 28-32 h in DMEM containing 0.5% CS, 100 U/mL penicillin, 0.1 mg/mL streptomycin, and either DMSO, 50 μM forskolin, 50 μM LY294002, or various concentrations of the HPIs. Firefly and Renilla luciferase activities were measured using a dual luciferase kit and a Veritas microplate luminometer.

[3] = system: FLAG-Gli2; test: Immunostaining of FLAG-Gli2 line: ciliary FLAG-Gli2 and primary cilia; assay type: cell-based, mouse; conditions: for Ciliary levels of FLAG-Gli2: Shh-EGFP FLAG-Gli2 cells, immunofluorescence
Protocol: Immunostaining of FLAG-Gli lines and NIH-3T3 cells. The FLAG-Gli1-expressing or FLAG-Gli2-expressing clonal cell lines were seeded into 24-well plates (80,000 cells/well) containing poly-D-lysine-coated 12-mm glass coverslips. […] The cells were subsequently fixed in 4% paraformaldehyde for 10 min at room temperature followed by treatment with methanol at −20° C. for 2 to 5 min. The cells were washed with PBS, permeabilized with 0.2% Triton X-100 for 2 to 5 min, and then blocked with PBS containing 2% BSA for 3 h at room temperature. The coverslips were then treated with mouse anti-FLAG M2 antibody (Sigma; 1:1,000 dilution in blocking buffer) and rabbit anti-Arl13b (10) (1:1,000 dilution in blocking buffer) for 3 h at room temperature and washed 3×5 min with PBS. The coverslips were incubated next with Alexa Fluor 594-conjugated goat anti-mouse IgG and Alexa Fluor 488-conjugated donkey anti-rabbit IgG antibodies (Invitrogen; 1:1,000 dilutions in blocking buffer) for 2 h at room temperature. After washes with PBS and a 5-min incubation with 4,6-diamidino-2-phenylindole (DAPI), the samples were mounted using Prolong Gold (Invitrogen) and imaged with an upright Leica DM4500B compound microscope. In order to quantify ciliary Gli2 localization, a circular region with diameter equal to the average width of cilia as determined by the anti-Arl13b antibody staining was manually placed at the distal end of each cilium. Regions were transferred from the anti-Arl13b antibody image to the anti-FLAG antibody image, and FLAG staining intensities within those areas were assessed. Between 40 and 80 cilia were analyzed for each condition. To normalize ciliary FLAG-Gli2 levels with respect to compound-dependent changes in total FLAG-Gli2 levels, the absolute average intensities for each condition were divided by the fold change in FLAG-Gli2 levels, as determined by the quantitative immunoblotting described above. Quantification of ciliary FLAG-Gli1 levels was performed in an analogous manner. Since HPI-4 perturbs primary cilia formation, only Arl13b-positive structures that could be clearly identified as cilia were used for Gli protein quanitification in HPI-4-treated cells. To assess cytoplasmic microtubule structures in cells treated with the HPIs, NIH-3T3 cells were cultured on poly-D-lysine-coated 12-mm glass coverslip, treated with the HPIs, and fixed with 4% paraformalehyde as described above. In place of the methanol treatment, the cells were permeabilitized with PBS containing 0.1% Triton X-100 for 1 min. Washing, blocking, and antibody incubation steps were then conducted as before, using mouse anti-<-tubulin (DM1-A, Sigma, 1:2,000 in blocking buffer). Secondary antibody treatments, DAPI staining, mounting, and imaging were then conducted as described above.

[4] = system: FLAG-Gli1; test: Immunostaining of FLAG-Gli1 line: FLAG-Gli1 localization; assay type: cell-based, mouse; conditions: Shh-LIGHT2 FLAG-Gli1 cells
Protocol: Immunostaining of FLAG-Gli lines and NIH-3T3 cells. The FLAG-Gli1-expressing or FLAG-Gli2-expressing clonal cell lines were seeded into 24-well plates (80,000 cells/well) containing poly-D-lysine-coated 12-mm glass coverslips. […] The cells were subsequently fixed in 4% paraformaldehyde for 10 min at room temperature followed by treatment with methanol at −20° C. for 2 to 5 min. The cells were washed with PBS, permeabilized with 0.2% Triton X-100 for 2 to 5 min, and then blocked with PBS containing 2% BSA for 3 h at room temperature. […] In order to quantify ciliary Gli2 localization, a circular region with diameter equal to the average width of cilia as determined by the anti-Arl13b antibody staining was manually placed at the distal end of each cilium. Regions were transferred from the anti-Arl13b antibody image to the anti-FLAG antibody image, and FLAG staining intensities within those areas were assessed. Between 40 and 80 cilia were analyzed for each condition. To normalize ciliary FLAG-Gli2 levels with respect to compound-dependent changes in total FLAG-Gli2 levels, the absolute average intensities for each condition were divided by the fold change in FLAG-Gli2 levels, as determined by the quantitative immunoblotting described above. Quantification of ciliary FLAG-Gli1 levels was performed in an analogous manner. […]

SMILES	PKA-dependent phosphorylation of CREB [1]	Sensitivity of overexpressed Gli2 αPKA mutant to compound [2]	Ciliary levels of FLAG-Gli2 [3]	Primary cilia formation ([3]; 30 μM HPI-4)	Ciliary FLAG-Gli1 levels [4]	Subcellular localization of FLAG-Gli1 [4]
COCCOC(=O)C1=C(C)NC2=C(C(=O)CC(c3ccccc3OC)C2)C1c1cccc(O)c1 (mixture of isomers) [Compound 8, 4-(3-Hydroxy-phenyl)-7-(2-methoxy-phenyl)-2-methyl-5-oxo-1,4,5,6,7,8-hexahydro-quinoline-3-carboxylic acid 2-methoxy-ethyl ester]	does not induce the PKA-dependent phosphorylation	partially resistant	–	–	–	–
OCCNc1nc(N2CCN(c3ccccc3)CC2)nc2ccccc12 [Compound 11]	–	–	increased ciliary levels of FLAG-Gli2	–	–	–
COc1ccc(OC)c2c1cc1n2CC(C)(C(=O)NC2CCCCCCC2)N(CCN(C)C)C1=O (stereo not shown) [Compound 17]	significantly lower than that observed in forskolin-treated cells	partially resistant	increased ciliary levels of FLAG-Gli2	–	–	–
N#CC(C(=O)c1ccc(Cl)cc1Cl)=C1NC(=O)c2ccccc2N1 [Compound 18]	–	–	increased ciliary levels of FLAG-Gli2	truncated primary cilia; also recorded: inhibits primary cilia formation	promoted accumulation of FLAG-Gli1 at the distal tip of this organelle relative to total FLAG-Gli1 levels	reduced cytoplasmic levels of the transcription factor but retained nuclear FLAG-Gli1
